Data published in patent US9308215B2, “Avermectins and milbemycins as anti-mycobacterial agents” (priority 2013, dated 2016).
≈ marks a conversion by molar mass, not a printed value. Like-named read-outs stand apart in the source and are kept apart here.

What was measured:
M. tuberculosis [1] = conditions: Jayaram et al. 2003; cited from earlier work
E. coli = experiment: microbe, parasite or virus in culture; assay type: cell-based, Escherichia coli; conditions: strain O157:H7, WT
A. baumannii = experiment: microbe, parasite or virus in culture; assay type: cell-based, Acinetobacter baumannii; conditions: strain ATCC 1960, WT
P. aeruginosa = experiment: microbe, parasite or virus in culture; assay type: cell-based, Pseudomonas aeruginosa; conditions: strain PA01 (H103), WT
S. lividans = experiment: microbe, parasite or virus in culture; assay type: cell-based, Streptomyces lividans; conditions: strain 1326, WT
R. jostii = experiment: microbe, parasite or virus in culture; assay type: cell-based, Rhodococcus jostii; conditions: strain RHA1, WT
K. rhizophila = experiment: microbe, parasite or virus in culture; assay type: cell-based, Kocuria rhizophila; conditions: WT
S. aureus = experiment: microbe, parasite or virus in culture; assay type: cell-based, Staphylococcus aureus; conditions: strain ATCC 25923, WT
M. smegmatis = experiment: microbe, parasite or virus in culture; assay type: cell-based, Mycobacterium smegmatis; conditions: strain mc^2155, WT
M. bovis BCG = experiment: microbe, parasite or virus in culture; assay type: cell-based, Mycobacterium bovis; conditions: strain BCG Pasteur, WT
M. tuberculosis [2] = experiment: microbe, parasite or virus in culture; assay type: cell-based, Mycobacterium tuberculosis
M. aurum = experiment: MIC against mycobacterial species; assay type: cell-based; conditions: M. aurum
M. avium = experiment: MIC against mycobacterial species; assay type: cell-based, Mycobacterium avium
M. chelonae = experiment: MIC against mycobacterial species; assay type: cell-based; conditions: M. chelonae
M. gordonae = experiment: MIC against mycobacterial species; assay type: cell-based; conditions: M. gordonae 324
M. intracellulare = experiment: MIC against mycobacterial species; assay type: cell-based
M. microti = experiment: microbe, parasite or virus in culture; assay type: cell-based
M. phlei = experiment: MIC against mycobacterial species; assay type: cell-based; conditions: M. phlei
[3] = test system: M. tuberculosis H37Rv and mc25857 (an MDR isolate); assay type: cell-based, Mycobacterium tuberculosis; conditions: in vitro against M. tuberculosis, survival kinetics
M. tuberculosis Erdman [4] = experiment: Mouse in vivo TB model, acute (GKO); conditions: for Toxicity / Log10 cfu reduction (lungs): Acute (GKO), Erdman; for Log10 cfu reduction (lungs): 50/35/15 H2O/PEG300/PG
Description: Mice were low-dose aerosol infected (50-100 bacteria). In the acute model, immune compromised mice were left untreated for 13 days to allow the infection to become established before 9 days of consecutive drug therapy was initiated. Drugs were administered by oral gavage. Log10 cfu reductions in the lungs were compared to untreated group. Rifampin was included as an internal control. An ordinary one-way ANOVA Bonferroni's multiple comparisons test was used to calculate p values. A p value<0.05 indicates statistically significant differences compared to the control group (vehicle).
Using an acute TB model, immune compromised mice were low-dose aerosol infected and then left untreated for 13 days to allow the infection to become established before 9 days of consecutive drug therapy was initiated. Drugs were administered orally and Log10 cfu reductions in the lungs were compared to and untreated group (vehicle) to rifampin treatment. […] Rifampicin was included as control.

M. tuberculosis Erdman [5] = experiment: Mouse in vivo TB model, chronic (Balb/C); conditions: 10 mg/kg bw PO
[6] = test system: representative Gram-positive and Gram-negative bacteria; assay type: cell-based
[7] = Horses, 200 μg/kg oral; cited from earlier work
[8] = 0.2 mg/kg oral, cited from earlier work
[9] = cited from earlier work; for Cmax / AUC / T½: Humans
[10] = Dogs, 250 μg/kg oral; cited from earlier work
[11] = mice; cited from earlier work
[12] = single dose, clinical studies, cited from earlier work
[13] = ivermectin: extra-label use; selamectin, moxidectin: therapeutic doses; cited from earlier work
[14] = less sensitive strains CI15072, CI12081, BC-MDR2, BC-DS4 and BC-DS5

For CO[C@H]1/C=C/O[C@@]2(C)Oc3c(C)c(O)c4c(O)c(c(/C=N/N5CCN(C)CC5)c(O)c4c3C2=O)NC(=O)/C(C)=C\C=C\[C@H](C)[C@H](O)[C@@H](C)[C@@H](O)[C@@H](C)[C@H](OC(C)=O)[C@@H]1C [Rifampin], the “AUC24/MIC value required for 1 log 10 CFU/ml reduction, relative to avermectins and milbemycins” value (M. tuberculosis [1]) is given as “more than 10 times higher”.

For CC[C@H](C)[C@H]1O[C@]2(CC[C@@H]1C)C[C@@H]1C[C@@H](C/C=C(\C)[C@@H](O[C@H]3C[C@H](OC)[C@@H](O[C@H]4C[C@H](OC)[C@@H](O)[C@H](C)O4)[C@H](C)O3)[C@@H](C)/C=C/C=C3\CO[C@@H]4[C@H](O)C(C)=C[C@@H](C(=O)O1)[C@]34O)O2 [Ivermectin], the “In vitro MIC90” value (E. coli) was >256 µg/mL, the “In vitro MIC90” value (A. baumannii) was >256 µg/mL and the “In vitro MIC90” value (P. aeruginosa) was >256 µg/mL. The “In vitro MIC90” value (S. lividans) was >256 µg/mL, the “In vitro MIC90” value (R. jostii) was >256 µg/mL and the “In vitro MIC90” value (K. rhizophila) was >256 µg/mL. The “In vitro MIC90” value (S. aureus) was >256 µg/mL, the “In vitro MIC90” value (M. smegmatis) was 8 µg/mL and the “In vitro MIC90” value (M. bovis BCG) was 4 µg/mL. The MIC50 (M. tuberculosis [2]; [14]) was < 8 µg/mL, the MIC90 (M. tuberculosis [2]; [14]) was 24 µg/mL (≈ 27.4 µM) and the “In vitro MIC90” value (M. tuberculosis [2]; strain 1254, WT) was 8 µg/mL. For the same molecule, the “In vitro MIC90” value (M. tuberculosis [2]; strain BC-DS1 (drug-susceptible)) was 4 to 16 µg/mL, the “In vitro MIC90” value (M. tuberculosis [2]; strain BC-DS3 (drug-susceptible)) was 8 to 16 µg/mL and the “value in parentheses in MIC90 column (MIC50)” value (“value in parentheses” below) (M. tuberculosis [2]; strain BC-DS4) was 8 µg/mL. For the same molecule, the “In vitro MIC90” value (M. tuberculosis [2]; strain BC-DS4 (drug-susceptible)) was 64 µg/mL, the “value in parentheses” value (M. tuberculosis [2]; strain BC-DS5) was 8 µg/mL and the “In vitro MIC90” value (M. tuberculosis [2]; strain BC-DS5 (drug-susceptible)) was > 128 µg/mL. For the same molecule, the “value in parentheses” value (M. tuberculosis [2]; strain BC-MDR2) was 8 µg/mL, the “In vitro MIC90” value (M. tuberculosis [2]; strain CDC 1551, WT) was 4 to 8 µg/mL and the “In vitro MIC90” value (M. tuberculosis [2]; strain Erdman, WT) was 8 µg/mL. For the same molecule, the “In vitro MIC90” value (M. tuberculosis [2]; strain H37Rv, WT) was 6 µg/mL, the MIC (M. aurum) was 2 µg/mL (≈ 2.29 µM) and the MIC (M. avium; M. avium 702) was >256 µg/mL. For the same molecule, the MIC (M. avium; M. avium 715) was >256 µg/mL, the MIC (M. avium; M. avium ATCC 25291) was >128 µg/mL and the MIC (M. chelonae) was 4 µg/mL (≈ 4.57 µM). The MIC (M. gordonae) was 4 µg/mL (≈ 4.57 µM), the MIC (M. intracellulare; M. intracellulare 1403 ATCC35761) was 4 µg/mL (≈ 4.57 µM) and the MIC (M. intracellulare; M. intracellulare 1403 Trudeau) was 4 µg/mL (≈ 4.57 µM). The MIC (M. intracellulare; M. intracellulare D673) was 8 µg/mL (≈ 9.14 µM), the MIC (M. intracellulare; M. intracellulare FM) was 8 µg/mL (≈ 9.14 µM) and the MIC (M. microti; M. microti 1601) was 4 µg/mL (≈ 4.57 µM). For the same molecule, the MIC (M. microti; M. microti 1608) was 256 µg/mL (≈ 293 µM), the MIC (M. phlei) was 32 µg/mL (≈ 36.6 µM) and the bactericidal or bacteriostatic [3] was “Bactericidal”. For the same molecule, the “activity in vivo in acute TB model” value (M. tuberculosis Erdman [4]; 5 and 10 mg/kg doses, oral, Erdman 107) was “did not show activity”, the Toxicity (M. tuberculosis Erdman [4]; 5 mg/kg bw PO) was “None” and the “Log10 cfu reduction (lungs)” value (M. tuberculosis Erdman [4]; 5 mg/kg bw PO) was 0.32 Log10 cfu. The Toxicity (M. tuberculosis Erdman [4]; 10 mg/kg bw PO) was “None”, the “Log10 cfu reduction (lungs)” value (M. tuberculosis Erdman [4]; 10 mg/kg bw PO) was 0.4 Log10 cfu and the Toxicity (M. tuberculosis Erdman [5]) was “None”. For the same molecule, the “Log10 cfu reduction (lungs)” value (M. tuberculosis Erdman [5]; 50/35/15 H2O/PEG300/PG) was −0.11 Log10 cfu, the Inhibitory effects [6] was “not observed” and the AUC [7] was 3184 ng·h/mL. The Cmax [7] was 44 ng/mL, the T½ [7] was 20 h and the Cmax ([8]; Mouse (lung)) was 20 ng/mL. For the same molecule, the AUC ([8]; Mouse (plasma)) was 573 ng·h/mL, the Cmax ([8]; Mouse (plasma)) was 20 ng/mL and the T½ ([8]; Mouse (plasma)) was 9.3 h. For the same molecule, the Cmax ([9]; 12 mg (165 μg/kg) oral) was 47 ng/mL, the AUC ([9]; 30 mg (347-541 μg/kg) oral) was 2819 ng·h/mL and the Cmax ([9]; 30 mg (347-541 μg/kg) oral) was 85 ng/mL. For the same molecule, the T½ ([9]; 30 mg (347-541 μg/kg) oral) was 19 h, the AUC ([9]; 30 mg (fed) oral) was 4564 ng·h/mL and the Cmax ([9]; 30 mg (fed) oral) was 260 ng/mL. The T½ ([9]; 30 mg (fed) oral) was 15 h, the AUC ([9]; 90 mg (1031-1466 μg/kg) oral) was 2910 ng·h/mL and the Cmax ([9]; 90 mg (1031-1466 μg/kg) oral) was 158 ng/mL. For the same molecule, the T½ ([9]; 90 mg (1031-1466 μg/kg) oral) was 19 h, the AUC ([9]; 120 mg (1404-2000 μg/kg) oral) was 4547 ng·h/mL and the Cmax ([9]; 120 mg (1404-2000 μg/kg) oral) was 247 ng/mL. For the same molecule, the T½ ([9]; 120 mg (1404-2000 μg/kg) oral) was 19 h, the plasma concentrations ([9]; healthy volunteers, 120 mg) was “ca. 0.25 μg/mL” and the “maximal concentration in plasma” value ([9]; standard dose of 12 mg) was “ca. 50 ng/mL”. The AUC [10] was 5600 ng·h/mL, the Cmax [10] was 132 ng/mL and the T½ [10] was 80 h. For the same molecule, the LD50 [11] was 25 mg/kg body weight, the “dose reported safe in humans” value [12] was ≤ 120 mg and the “dose reported safe in humans” value ([12]; listed as ivermectin) was 120 mg. For the same molecule, the “toxicity in dogs lacking MDR1 P-glycoprotein / homozygous MDR1 mutation” value [13] was “severe signs of neurotoxicity”.
